Results taken from the Deep4Chem optical property database.

Experiment: solvent given as SMILES

CCCCN(CCCC)c1ccc(C#Cc2cc(C#Cc3ccc(N(CCCC)CCCC)cc3)c(C#Cc3ccc(C#N)cc3)cc2C#Cc2ccc(C#N)cc2)cc1
emission maximum (in ClCCl): 557 nm
emission maximum (in c1ccccc1): 512 nm

Cc1cc(C)cc(NC(=O)c2sc(Br)nc2C)c1
emission maximum (in C1CCOC1): 413.2 nm
emission maximum (in CC#N): 399 nm
emission maximum (in CCCCCC): 400.6 nm
emission maximum (in CCOC(C)=O): 405.5 nm
emission maximum (in CN(C)C=O): 398.2 nm
emission maximum (in CO): 402 nm
emission maximum (in CS(C)=O): 402.5 nm
emission maximum (in ClC(Cl)Cl): 411.5 nm

CC(C)(C)c1ccc2c(c1)c1cc(C(C)(C)C)ccc1n2-c1ccc(N(c2ccc(-c3ccc(-c4ccc(N(c5ccc(-n6c7ccc(C(C)(C)C)cc7c7cc(C(C)(C)C)ccc76)cc5)c5ccc(-n6c7ccc(C(C)(C)C)cc7c7cc(C(C)(C)C)ccc76)cc5)cc4)s3)cc2)c2ccc(-n3c4ccc(C(C)(C)C)cc4c4cc(C(C)(C)C)ccc43)cc2)cc1
emission maximum (in ClCCl): 465 nm

CCN(CC)c1ccc2c(c1)oc(=O)c1c(C)nc3c(c(-c4ccccc4)nn3-c3ccccc3)c12
emission maximum (in ClCCl): 461 nm

Cc1csc2[n+]1[B-](F)(F)OC(c1ccc(N(C)C)cc1)=N2
emission maximum (in C1CCOC1): 453 nm
emission maximum (in CC#N): 466 nm
emission maximum (in Cc1ccccc1): 437 nm
emission maximum (in ClCCl): 453 nm

COC(=O)c1ccc(/C=C2\C=C(c3ccccc3)NC2=O)cc1
emission maximum (in C1COCCO1): 544 nm

COc1ccc(-n2c(C)ccc2C)cc1
emission maximum (in CC#N): 421 nm
emission maximum (in CCCCCC): 336 nm

Clc1ncc(-c2c3ccccc3c(-c3cnc(Cl)nc3)c3ccccc23)cn1
emission maximum (in CCO): 428 nm
emission maximum (in ClCCl): 421 nm

Cc1nc2c(ccc3c2sc(/C=C/c2cc4c5c(c2)CCCN5CCC4)[n+]3C)s1
emission maximum (in CO): 622 nm
emission maximum (in ClC(Cl)Cl): 623 nm

COC(=O)c1[nH]c(-c2ccccc2)c2nnc3ccsc3c12
emission maximum (in ClCCl): 478 nm

CN(C)/C=N\c1ccc2c3c(cccc13)C(=O)c1ccccc1-2
emission maximum (in C1CCOC1): 586 nm
emission maximum (in CCCCCC): 528 nm
emission maximum (in CCO): 634 nm
emission maximum (in CCOC(C)=O): 586 nm
emission maximum (in CN(C)C=O): 624 nm
emission maximum (in CO): 638 nm
emission maximum (in Cc1ccccc1): 551 nm
emission maximum (in ClC(Cl)(Cl)Cl): 540 nm
emission maximum (in ClC(Cl)Cl): 575 nm
emission maximum (in ClCCl): 593 nm
emission maximum (in c1ccccc1): 550 nm

c1ccc(-c2nn(-c3ccccc3)c3nc4ccc(N(c5ccccc5)c5ccccc5)cc4cc23)cc1
emission maximum (in C1CCCCC1): 486.62 nm
emission maximum (in C1CCOC1): 524.66 nm
emission maximum (in CC#N): 570.78 nm
emission maximum (in CC(C)=O): 551.27 nm
emission maximum (in CCCCCl): 516 nm
emission maximum (in CCCCOCCCC): 498.75 nm
emission maximum (in CN(C)C=O): 567.21 nm

Cn1c(-c2ccc(-c3nc(-c4ccccc4)c(-c4ccccc4)n3C)s2)nc(-c2ccccc2)c1-c1ccccc1
emission maximum (in CC#N): 470 nm

Cc1ccc2c(c1)nnn2-c1c(C#N)c2c(N)ncnc2n1[C@H]1C[C@H](O)[C@@H](CO)O1
emission maximum (in CO): 419 nm

CCC1(CC)c2ccccc2-c2ccc(C#Cc3ccc4ccc5cccc6ccc3c4c56)cc21
emission maximum (in C1CCCCC1): 407 nm
emission maximum (in C1CCOC1): 410 nm
emission maximum (in CC#N): 408 nm
emission maximum (in CCOC(C)=O): 406 nm
emission maximum (in CN(C)C=O): 412 nm
emission maximum (in Cc1ccccc1): 412 nm
emission maximum (in ClC(Cl)Cl): 413 nm
emission maximum (in ClCCl): 412 nm

CN(C)c1ccc(/C=C/c2cc[n+](CCC[n+]3ccc(/C=C/c4ccc(N(C)C)cc4)cc3)cc2)cc1
emission maximum (in CC1COC(=O)O1): 604 nm
emission maximum (in CC#N): 609 nm
emission maximum (in CC(C)=O): 608 nm
emission maximum (in CC(C)O): 594 nm
emission maximum (in CCO): 601 nm
emission maximum (in CN(C)C=O): 607 nm
emission maximum (in CO): 604 nm
emission maximum (in CS(C)=O): 610 nm
emission maximum (in ClC(Cl)Cl): 566 nm
emission maximum (in O): 597 nm
emission maximum (in c1ccncc1): 598 nm

CN(C)c1ccc(C2=Cc3cc(Cl)nc[n+]3[B-](F)(F)O2)cc1
emission maximum (in C1CCOC1): 532 nm
emission maximum (in CC#N): 565 nm
emission maximum (in CCCCCC): 456 nm
emission maximum (in Cc1ccccc1): 494 nm
emission maximum (in ClC(Cl)Cl): 512 nm
emission maximum (in ClCCl): 529 nm

Cn1nc(-c2ccc(C#N)cc2)cc1-c1ccccc1
emission maximum (in ClCCl): 348 nm

COc1ccc(N(c2ccccc2)c2ccc3ccc4c(N(c5ccccc5)c5ccc(OC)cc5)ccc5ccc2c3c54)cc1
emission maximum (in ClCCl): 513 nm

Cc1ccc2cc(C)ccc2c1
emission maximum (in C1CCCCC1): 342.82 nm

CCn1c2ccc(/C=C(\C#N)c3ccccc3)cc2c2cc(/C=C(\C#N)c3ccccc3)ccc21
emission maximum (in ClCCl): 412 nm

Cc1ccc(-c2nc(-c3ccc(C#N)cc3)[nH]c2-c2ccc(C)cc2)cc1
emission maximum (in CO): 447 nm

F[B-]1(F)n2c(c3ccccc3c2-c2ccccc2)C=C2c3ccccc3C(c3ccccc3)=[N+]21
emission maximum (in C1CCOC1): 662 nm
emission maximum (in ClCCl): 658 nm
